The subject of series [1] is NCI-H1975 (EGFR-L858R-T790M) cells. Kind of series: Inhibitory activity on proliferation of NCI-H1975 (EGFR-L858R-T790M) cells (CTG, 72 h). The note with it: Homo sapiens. In kind it is cell-based. In short, it runs like this:
(§1)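 IC50 values come from S-shaped dose-survival fits of CTG signal expressed as % of vehicle. Compound exposure lasted 72 h at 37 °C with 0.1% DMSO; seeding was 3000 A431 cells/well in DMEM+10% FBS and 1000 NCI-H1975 cells/well in RPMI1640+10% FBS.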

Another series deals with A431 (EGFR-WT) cells. Kind of series: Inhibitory activity on proliferation of A431 (EGFR-WT) cells (CTG, 72 h). Type of series: cell-based. The settings on record: Homo sapiens, A-431. The method, boiled down:
as §1

Series [2] is described as follows: Pharmacokinetic test in mice. In kind it is in vivo. The note with it: male, ICR, mouse, po, administration i.g. (10 mg/kg), plasma. In short, it runs like this: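 Male ICR mice (20-25 g), fasted 12-14 h before dosing and fed 4 h after, received a single intravenous or intragastric dose. Orbital plasma sampled from 0 to 24 h (5 min-24 h points); LC-MS/MS quantitation for PK parameters and bioavailability.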

Series [3] concerns the target T1, EGFR protein in NCI-H1975 EGFR-L858R-T790M-C797S cells (Homo sapiens, UniProt P00533, C797S/L858R/T790M).
T1 construct: expressed in transfected cells; host or cells: NCI-H1975 EGFR-L858R-T790M-C797S (kept under hygromycin selection)
Nature of the series: Degradation activity on EGFR protein in NCI-H1975 EGFR-L858R-T790M-C797S cells, Method II (western blot, 48 h). The settings on record: 48 h incubation, EGFR protein relative to DMSO control. In kind it is cell-based. As to the method: (§2) Protein sample preparation: NCI-H1975 EGFR-L858R-T790M-C797S cells were cultured in an incubator at 37° C. with 5% CO2, and the culture medium was RPMI1640+10% FBS+100 μg/mL hygromycin. The cells in the logarithmic phase were collected, and the cell suspension was adjusted to an appropriate concentration with a hygromycin-free culture medium, plated on a 6-well plate at a density of 350000 cells/well and a volume of 2 mL, and cultured overnight in an incubator at 37° C. with 5% CO2. The next day, the compounds at different concentrations were added. DMSO control wells were provided, wherein the concentration of DMSO in all wells was 0.1%. The 6-well plate was cultured in an incubator at 37° C. with 5% CO2 for 48 h, and then 30 μL of RIPA lysates (Beyotime, Cat. P0013B) containing protease inhibitors (Beyotime, Cat. P0013B) were added. The mixtures were lysed on ice for 30 min. Centrifugation was carried out at 13000 rpm/min at 4° C. for 20 minutes to collect protein supernatant samples, and protein quantification was performed by the BCA method. Western Blot detection samples were prepared.
(§3) Western blot detection: 20 μg of protein samples were added to each well, subjected to polyacrylamide gel electrophoresis and transferred to a membrane, and then diluted anti-EGFR (CST, Cat. 4267S) and […] (Kangchen, Cat. KC-5G4) antibodies were added and incubated overnight at 4° C. After washing the membrane, diluted goat anti-rabbit (Licor, Cat. 926-32211) and goat anti-mouse (Licor, Cat. 926-68070) antibodies were added and incubated in the dark for 45 min. Scanning and detection at wavelengths of 700 nm and 800 nm were performed with a far-infrared imaging system (Odyssey).
(§4) According to formula (3), the expression level of EGFR protein in the cells relative to the DMSO control group was calculated after incubation with different concentrations of compounds. wherein EGFRcompound was the fluorescence value of EGFR protein after incubation with compounds, and EGFRvehicle was the fluorescence value of EGFR protein in the DMSO control group. Using the Origin 9.2 software, the drug concentration DC50 values when the expression level of EGFR protein was 50% relative to the DMSO control group were calculated.
A general note: A western blot detects proteins with antibodies after separation by electrophoresis.

The test system of series [4] is NCI-H1975 EGFR-L858R-T790M-C797S cells. Nature of the series: Inhibitory activity on proliferation of NCI-H1975 EGFR-L858R-T790M-C797S cells (CellTiter-Glo, 72 h). Type of series: cell-based. The settings on record: Homo sapiens. In short, it runs like this: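 Cells (1500/well) exposed to graded compound concentrations for 72 h at 37 °C in hygromycin-free RPMI1640 + 10% FBS, 0.1% DMSO vehicle. Viability by CellTiter-Glo luminescence relative to vehicle; IC50 from nonlinear sigmoidal dose-survival fit.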

The target of series [5] is T1, EGFR protein in NCI-H1975 EGFR-L858R-T790M-C797S cells. Nature of the series: Degradation activity on EGFR protein in NCI-H1975 EGFR-L858R-T790M-C797S cells, Method I (western blot, 72 h). Type of series: cell-based. The note with it: 72 h incubation, EGFR protein relative to DMSO control. The procedure:
as §2, with “200000” for “350000”, “72” for “48”, “min” for “minutes”, “Samples for western blot” for “Western Blot”, “detection” for “detection samples”
as §3, §4

Setting [6] is: read-out: IC50 (value in brackets).

Where two headings read alike, the source gives them in different places.

T1 sequence (P00533 25-1210 T790M/C797S/L858R): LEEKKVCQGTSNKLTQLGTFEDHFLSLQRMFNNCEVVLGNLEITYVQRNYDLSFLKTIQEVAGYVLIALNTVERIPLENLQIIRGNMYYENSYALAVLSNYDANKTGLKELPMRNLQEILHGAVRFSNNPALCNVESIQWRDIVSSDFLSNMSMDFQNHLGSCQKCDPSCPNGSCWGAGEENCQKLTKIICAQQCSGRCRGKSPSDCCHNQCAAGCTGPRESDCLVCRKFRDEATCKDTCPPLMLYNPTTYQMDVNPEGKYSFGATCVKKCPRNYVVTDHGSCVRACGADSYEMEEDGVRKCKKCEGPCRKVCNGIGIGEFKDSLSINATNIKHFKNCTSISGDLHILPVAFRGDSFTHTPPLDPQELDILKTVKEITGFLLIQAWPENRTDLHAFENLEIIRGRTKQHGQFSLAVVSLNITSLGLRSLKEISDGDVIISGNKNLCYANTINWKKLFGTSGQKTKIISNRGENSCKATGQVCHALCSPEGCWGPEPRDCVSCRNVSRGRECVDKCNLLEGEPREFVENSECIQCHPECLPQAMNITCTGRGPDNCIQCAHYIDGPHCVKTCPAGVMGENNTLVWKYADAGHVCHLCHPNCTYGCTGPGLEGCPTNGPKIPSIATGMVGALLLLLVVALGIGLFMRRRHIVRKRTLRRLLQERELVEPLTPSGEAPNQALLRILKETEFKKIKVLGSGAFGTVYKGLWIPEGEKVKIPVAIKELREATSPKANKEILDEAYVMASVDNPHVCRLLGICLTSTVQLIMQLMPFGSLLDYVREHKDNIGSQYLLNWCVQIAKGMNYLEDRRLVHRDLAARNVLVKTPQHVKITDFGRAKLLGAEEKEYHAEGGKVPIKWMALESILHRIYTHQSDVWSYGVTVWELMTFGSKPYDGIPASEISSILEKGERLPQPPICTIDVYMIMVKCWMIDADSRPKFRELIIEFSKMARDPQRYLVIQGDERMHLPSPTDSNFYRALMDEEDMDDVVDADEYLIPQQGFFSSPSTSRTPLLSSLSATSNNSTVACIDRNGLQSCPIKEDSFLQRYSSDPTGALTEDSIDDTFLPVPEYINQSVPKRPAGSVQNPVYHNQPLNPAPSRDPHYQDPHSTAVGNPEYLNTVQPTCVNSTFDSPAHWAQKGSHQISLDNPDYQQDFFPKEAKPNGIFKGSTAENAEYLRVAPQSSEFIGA

With `COc1cc(N2CCC(CN3CCN(c4ccc5c(c4)C(=O)N(C4CCC(=O)NC4=O)C5=O)CC3)CC2)c(-c2cnn(C)c2)cc1Nc1ncc(Cl)c(Nc2ccccc2P(C)(C)=O)n1` (centres unmarked) [Compound 109, 5-(4-((1-(4-((5-chloro-4-((2-(dimethylphosphoryl)phenyl)amino)pyrimidin-2-yl)amino)-5-methoxy-2-(1-methyl-1H-pyrazol-4-yl)phenyl)piperidin-4-yl)methyl)piperazin-1-yl)-2-(2,6-dioxopiperidin-3-yl)isoindoline-1,3-dione], the IC50 (commonly the concentration needed to halve the response being measured) in series [1] (read-out: IC50 (class symbol)) was less than 100 nM; in series [1] (setting [6]), 52 nM; with A431 (EGFR-WT) cells it was not below 10000 nM. In addition, the AUC – broadly, the area under the concentration-time curve, a measure of exposure – in series [2] was 81500 ng·h/mL. Besides, the half-life (as a rule, the time in which the quantity being followed falls by half) in series [2] is 4.53 h. Also, the DC50 (in general, the midpoint of the concentration-degradation curve) in series [3] was less than 100 nM.
Take `COc1cc(N2CCC(N3CCN(c4ccc5c(c4)C(=O)N(C4CCC(=O)NC4=O)C5=O)CC3)CC2)c(-c2cnn(C)c2)cc1Nc1ncc(Cl)c(Nc2ccc(C3CC3)cc2P(C)(C)=O)n1` (centres unmarked) [Compound 113, 5-(4-(1-(4-((5-chloro-4-((4-cyclopropyl-2-(dimethylphosphoryl)phenyl)amino)pyrimidin-2-yl)amino)-5-methoxy-2-(1-methyl-1H-pyrazol-4-yl)phenyl)piperidin-4-yl)piperazin-1-yl)-2-(2,6-dioxopiperidin-3-yl)isoindoline-1,3-dione]: the IC50 is less than 100 nM in series [1] (read-out: IC50 (class symbol)), 68 nM in series [1] (setting [6]) and not below 10000 nM in the series on A431 (EGFR-WT) cells. Further, the DC50 in series [3] is less than 100 nM.
Consider `COc1cc(N2CCN(C[C@@H]3CCN(c4ccc5c(c4)C(=O)N(C4CCC(=O)NC4=O)C5=O)C3)CC2)c(-c2cnn(C)c2)cc1Nc1ncc(Br)c(Nc2ccc(-c3ccccc3)cc2P(C)(C)=O)n1` (stereo partly drawn) [Compound 103, 5-((S)-3-((4-(4-((5-bromo-4-((3-(dimethylphosphoryl)-[1,1′-biphenyl]-4-yl)amino)pyrimidin-2-yl)amino)-5-methoxy-2-(1-methyl-1H-pyrazol-4-yl)phenyl)piperazin-1-yl)methyl)pyrrolidin-1-yl)-2-(2,6-dioxopiperidin-3-yl)isoindoline-1,3-dione], for which the IC50 in series [1] (read-out: IC50 (class symbol)) was less than 100 nM; in series [1] (setting [6]) it was 61 nM; with A431 (EGFR-WT) cells, not below 10000 nM; in series [4] (read-out: IC50 (class symbol)) it was less than 200 nM; in series [4] (read-out: IC50 (value)), 101 nM. For the same compound, in series [2], the AUC(0-t) (in general, exposure summed from dosing to a finite time, without extrapolation to infinity) was found to be 34700 ng·h/mL. This compound also returned a DC50 in series [3] of less than 100 nM.
Turning to `COc1cc(N2CCN(CC3CCN(c4ccc5c(c4)C(=O)N(C4CCC(=O)NC4=O)C5=O)C3)CC2)c(-c2cnn(C)c2)cc1Nc1ncc(Br)c(Nc2ccc(-c3ccccc3)cc2P(C)(C)=O)n1` (centres unmarked) [Compound 67, 5-(3-((4-(4-((5-bromo-4-((3-(dimethylphosphoryl)-[1,1′-biphenyl]-4-yl)amino)pyrimidin-2-yl)amino)-5-methoxy-2-(1-methyl-1H-pyrazol-4-yl)phenyl)piperazin-1-yl)methyl)pyrrolidin-1-yl)-2-(2,6-dioxopiperidin-3-yl)isoindoline-1,3-dione], the IC50 in series [1] (read-out: IC50 (class symbol)) is less than 100 nM; in series [1] (setting [6]) it was 37 nM; in the series on A431 (EGFR-WT) cells, not below 10000 nM; in series [4] (read-out: IC50 (class symbol)), less than 200 nM; in series [4] (read-out: IC50 (value)), 115 nM. In addition, in series [2], the AUC was 70900 ng·h/mL. In addition, the half-life in series [2] is 3.86 h. The DC50 in series [5] is less than 100 nM.
In the case of `COc1cc(N2CCC(N3CCN(c4ccc5c(c4)C(=O)N(C4CCC(=O)NC4=O)C5=O)CC3)CC2)c(-c2cnn(C)c2)cc1Nc1ncc(Br)c(Nc2ccc(-c3ccccc3)cc2P(C)(C)=O)n1` (centres unmarked) [Compound 81, 5-(4-(1-(4-((5-bromo-4-((3-(dimethylphosphoryl)-[1,1′-biphenyl]-4-yl)amino)pyrimidin-2-yl)amino)-5-methoxy-2-(1-methyl-1H-pyrazol-4-yl)phenyl)piperidin-4-yl)piperazin-1-yl)-2-(2,6-dioxopiperidin-3-yl)isoindoline-1,3-dione], the IC50 in series [1] (read-out: IC50 (class symbol)) was less than 100 nM; in series [1] (setting [6]) it was 71 nM; in the series with A431 (EGFR-WT) cells, not below 10000 nM; in series [4] (read-out: IC50 (class symbol)), less than 200 nM; in series [4] (read-out: IC50 (value)) it was 49 nM. In series [2], this compound displayed an AUC(0-t) of 51000 ng·h/mL. Besides, the DC50 in series [5] is less than 100 nM.
For `COc1cc(N2CCN(C3CCN(c4ccc5c(c4)C(=O)N(C4CCC(=O)NC4=O)C5=O)CC3)CC2)c(-c2cnn(C)c2)cc1Nc1ncc(Cl)c(Nc2ccc(-c3ccccc3)cc2P(C)(C)=O)n1` (centres unmarked) [Compound 100, 5-(4-(4-(4-((5-chloro-4-((3-(dimethylphosphoryl)-[1,1′-biphenyl]-4-yl)amino)pyrimidin-2-yl)amino)-5-methoxy-2-(1-methyl-1H-pyrazol-4-yl)phenyl)piperazin-1-yl)piperidin-1-yl)-2-(2,6-dioxopiperidin-3-yl)isoindoline-1,3-dione], the IC50 was less than 100 nM in series [1] (read-out: IC50 (class symbol)); 48 nM in series [1] (setting [6]); not below 10000 nM with A431 (EGFR-WT) cells; less than 200 nM in series [4] (read-out: IC50 (class symbol)); 84 nM in series [4] (read-out: IC50 (value)). The AUC in series [2] is 33300 ng·h/mL. This compound had a half-life in series [2] of 2.49 h. Moreover, the DC50 in series [5] was less than 100 nM.
As for `COc1cc(N2CCN(C[C@@H]3CCN(c4ccc5c(c4)C(=O)N(C4CCC(=O)NC4=O)C5=O)C3)CC2)c(-c2cnn(C)c2)cc1Nc1ncc(Br)c(Nc2ccc(-c3ccccc3F)cc2P(C)(C)=O)n1` (stereo partly drawn) [Compound 116, 5-((S)-3-((4-(4-((5-bromo-4-((3-(dimethylphosphoryl)-2′-fluoro-[1,1′-biphenyl]-4-yl)amino)pyrimidin-2-yl)amino)-5-methoxy-2-(1-methyl-1H-pyrazol-4-yl)phenyl)piperazin-1-yl)methyl)pyrrolidin-1-yl)-2-(2,6-dioxopiperidin-3-yl)isoindoline-1,3-dione], the results for the IC50 (in series [1] (read-out: IC50 (class symbol)); in series [1] (setting [6]); in the series with A431 (EGFR-WT) cells) were less than 100 nM, 94 nM and not below 10000 nM, respectively. The DC50 in series [3] was less than 100 nM.
With `COc1cc(N2CCC(N3CCN(c4ccc5c(c4)C(=O)N(C4CCC(=O)NC4=O)C5=O)CC3)CC2)c(-c2cnn(C)c2)cc1Nc1ncc(Br)c(Nc2ccc(C3CC3)cc2P(C)(C)=O)n1` (centres unmarked) [Compound 112, 5-(4-(1-(4-((5-bromo-4-((4-cyclopropyl-2-(dimethylphosphoryl)phenyl)amino)pyrimidin-2-yl)amino)-5-methoxy-2-(1-methyl-1H-pyrazol-4-yl)phenyl)piperidin-4-yl)piperazin-1-yl)-2-(2,6-dioxopiperidin-3-yl)isoindoline-1,3-dione], the IC50 in series [1] (read-out: IC50 (class symbol)) was less than 100 nM; in series [1] (setting [6]) it was 83 nM; in the series with A431 (EGFR-WT) cells, not below 10000 nM; in series [4] (read-out: IC50 (class symbol)), less than 200 nM; in series [4] (read-out: IC50 (value)), 127 nM. Further, the DC50 in series [3] was less than 100 nM.

For the origin of these results see patent US20240269298A1, “PHOSPHONYL DERIVATIVE, AND COMPOSITION AND PHARMACEUTICAL APPLICATION THEREOF” (XIZANG HAISCO PHARMACEUTICAL CO., LTD., priority 2021, published 2024).
